Reference: patent US9765074B2, “Inhibitors of the renal outer medullary potassium channel” (Merck Sharp & Dohme Corp., priority 2013, dated 2017)

The compounds below were run against T1, hROMK (hKir1.1) (Homo sapiens, UniProt P48048) (assay: Thallium Flux Assay (ROMK channel functional thallium flux, FLIPR-Tetra)). Settings: HEK293 cells stably expressing hROMK (hKir1.1); 30 min compound incubation.
T1 construct: expressed in transfected cells
T1 sequence (P48048 1-391): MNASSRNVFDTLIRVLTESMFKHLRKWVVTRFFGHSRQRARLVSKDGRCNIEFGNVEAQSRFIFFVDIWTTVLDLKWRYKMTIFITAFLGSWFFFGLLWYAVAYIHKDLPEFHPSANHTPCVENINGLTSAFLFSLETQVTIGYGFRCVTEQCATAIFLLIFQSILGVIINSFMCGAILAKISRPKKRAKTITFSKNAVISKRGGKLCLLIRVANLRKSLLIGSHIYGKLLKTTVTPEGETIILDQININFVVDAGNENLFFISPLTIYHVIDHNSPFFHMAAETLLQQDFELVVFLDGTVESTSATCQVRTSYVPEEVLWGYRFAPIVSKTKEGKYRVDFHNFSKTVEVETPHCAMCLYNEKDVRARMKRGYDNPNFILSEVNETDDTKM
Type: cell-based
Procedure: The following Thallium Flux Assay was performed on each of the final product compounds in the Examples.
Cell Culture Conditions—HEK293 cells stably expressing hROMK (hKir1.1) were grown at 37° C. in a 10% CO2 humidified incubator in complete growth media: Dulbecco's Modified Eagle Medium supplemented with non-essential amino acids, Penicillin/Streptomycin/Glutamine, G418 and FBS. At >80% confluency, aspirate the media from the flask and rinse with 10 mL Calcium/Magnesium-free PBS. Add 5 mL of 1× trypsin (prepared in Ca/Mg Free PBS) to T-225 flask and return flask to 37° C./CO2 incubator for 2-3 minutes. To dislodge the cell, gently bang the side of the flask with your hand. Triturate the cells completely and then transfer the cells to 25 mL complete media. Centrifuge at 1,500 rpm for 6 min followed by resuspension in complete growth media and determine cell concentration. For typical re-seeding, 4E6 cells/T-225 flask will attain >80% confluency in 4 days. Under ideal growth conditions and appropriate tissue culture practices, this cell line is stable for 40-45 passages. FluxOR Kit Components (Invitrogen F10017) • FluxOR™ Reagent (Component A) • FluxOR™ Assay Buffer (Component B)—10× Concentrate • PowerLoad™ Concentrate (Component C)—100× Concentrate • Probenecid (Component D)—Lyophilized sample is kept at −20° C. Water soluble, 100× after solubilization in 1 mL water. Store at 4° C. • FluxOR™ Chloride-free Buffer (Component E)—5× Concentrate • Potassium sulfate (K2SO4) Concentrate (Component F)—125 mM in water. Store at 4° C. • Thallium sulfate (Tl2SO4) Concentrate (Component G)—50 mM in water. Store at 4° C. • DMSO (dimethyl sulfoxide, Component H)—1 mL (100%) Reagent Preparation: FluxOR Working Solutions • 1000× FluxOR™ Reagent: Reconstitute a vial of component A in 100 μl DMSO; Mix well; Store 10 μl aliquots at −20° C. • 1× FluxOR™ Assay Buffer: Dilute Component B 10-fold with water; Adjust pH to 7.4 with Hepes/NaOH; Filter and store at 4° C. • Probenecid/Assay Buffer: 100 mL of 1× FluxOR™ Assay Buffer; 1 mL of reconstituted component D; Store at 4° C. • Loading Buffer (per microplate): 10 μl 1000× FluxOR™ Reagent; 100 μl component C; 10 mL Probenecid/Assay Buffer • Compound Buffer (per microplate): 20 mL Probenecid/Assay Buffer; 0.3 mM ouabain (10 mM ouabain in water can be stored in amber bottle/aluminum foil at room temperature); Test compound • 1× FluxOR™ Chloride-Free Buffer: Prepare 1× working solution in water. Can be stored at room temperature • Stimulant Buffer (prepared at 5× final concentration in 1× FluxOR™ Chloride-Free Buffer): 7.5 mM Thallium sulfate and 0.75 mM Potassium sulfate (to give a final assay concentration of 3 mM Thallium/0.3 mM Potassium). Store at 4° C. when not in use. If kept sterile, this solution is good for months. Assay Protocol—The ROMK channel functional thallium flux assay is performed in 384 wells, using the FLIPR-Tetra instrument. HEK-hKir1.1 cells are seeded in Poly-D-Lysine microplates and kept in a 37° C.-10% CO2 incubator overnight. On the day of the experiment, the growth media is replaced with the FluxOR™ reagent loading buffer and incubated, protected from light, at ambient temperature (23-25° C.) for 90 min. The loading buffer is replaced with assay buffer±test compound followed by 30 min incubation at ambient temperature, where the Thallium/Potassium stimulant is added to the microplate. Step Protocol • 1. Seed HEK-hKir1.1 cells (50 μl at 20,000 cells/well) in 384-well PDL coated Microplates • 2. Allow cells to adhere overnight in humidified 37° C./10% CO2 incubator • 3. Completely remove cell growth media from microplate and replace with 25 μl loading buffer • 4. Incubate Microplate at room temperature, protected form light, for 90 min • 5. Remove loading buffer and replace with 25 μl 1× Assay Buffer±test compound. • 6. Incubate microplate at room temperature, protected from light, for 30 min • 7. At FLIPR-Tetra 384: Add stimulant (Thallium/Potassium) solution to microplate and monitor fluorescence. […]

In order of falling IC50:
1. COC1CN(C[C@H](O)c2cnc(-n3cnnn3)cn2)CCC12CCN(C1=C(C)C(=O)OC1)C2=O (single isomer, unassigned) [Example 178]  790 nM
2. COC1CN(C[C@@H](O)c2cnc(-n3cnnn3)cn2)CCC12CCN(C1=C(C)C(=O)OC1)C2=O (single isomer, unassigned) [Example 173]  770 nM
3. COC1CN(C[C@@H](O)c2cnc(-n3cnnn3)cn2)CCC12CCN(C1=C(C)C(=O)OC1)C2=O (single isomer, unassigned) [Example 179]  330 nM
4. CC1=C(N2CCC3(CCN(C[C@H](O)c4ccc(-n5cnnn5)nc4C)CC3F)C2=O)COC1=O (single isomer, unassigned) [Example 118]  180 nM
5. COC1CN(C[C@H](O)c2cnc(-n3cnnn3)cn2)CCC12CCN(C1=C(C)C(=O)OC1)C2=O (single isomer, unassigned) [Example 172]  180 nM
6. CC1=C(N2CC(O)C3(CCN(C[C@H](O)c4ccc(-n5cnnn5)nc4)CC3)C2=O)COC1=O (single isomer, unassigned) [Example 110]  120 nM
7. CC1=C(N2CC(O)C3(CC4CCC(C3)N4C[C@@H](O)c3ccc(-n4cnnn4)nc3)C2=O)COC1=O (single isomer, unassigned) [Example 107]  110 nM
8. COC1CN(C2=C(C)C(=O)OC2)C(=O)C12CC1CCC(C2)N1C[C@H](O)c1cnc(-n2cnnn2)cn1 (single isomer, unassigned) [Example 160]  110 nM
9. CC1=C(N2CC(O)C3(CCN(C[C@H](O)c4ccc(-n5cnnn5)nc4)CC3)C2=O)COC1=O (single isomer, unassigned) [Example 111]  90 nM
10. CC1=C(N2C(=O)C3(CCN(C[C@@H](O)c4ccc(-n5cnnn5)nn4)CC3)CC2C)COC1=O (single isomer, unassigned) [Example 126]  90 nM
11. COC1CN(C[C@H](O)c2ccc(-n3cnnn3)nc2)CCC12CCN(C1=C(C)C(=O)OC1)C2=O (single isomer, unassigned) [Example 176]  90 nM
12. CC1=C(N2C(=O)C3(CCN(C[C@H](O)c4cnc(-n5cnnn5)nc4)CC3)CC2C)COC1=O (single isomer, unassigned) [Example 113]  80 nM
13. CC1=C(N2C(=O)C3(CC2C)CC2CCC(C3)N2C[C@@H](O)c2ccc(-n3cnnn3)nc2)COC1=O (single isomer, unassigned) [Example 136]  80 nM
14. CC1=C(N2C(=O)C3(CCN(C[C@H](O)c4ncc(-n5cnnn5)cc4C)CC3)CC2C)COC1=O (single isomer, unassigned) [Example 137]  80 nM
15. CC1=C(N2C(=O)C3(CCN(C[C@@H](O)c4ncc(-n5cnnn5)cc4C)CC3)CC2C)COC1=O (single isomer, unassigned) [Example 138]  80 nM
16. COC1CN(C[C@@H](O)c2ccc(-n3cnnn3)nc2)CCC12CCN(C1=C(C)C(=O)OC1)C2=O (single isomer, unassigned) [Example 177]  70 nM
17. COC1CN(C2=C(C)C(=O)OC2)C(=O)C12CC1CCC(C2)N1C[C@@H](O)c1ccc(-n2cnnn2)nc1 (single isomer, unassigned) [Example 109]  60 nM
18. COC1CN(C2=C(C)C(=O)OC2)C(=O)C12CCN(C[C@H](O)c1ccc(-n3cnnn3)nc1)CC2 (single isomer, unassigned) [Example 114]  60 nM
19. COC1CN(C2=C(C)C(=O)OC2)C(=O)C12CCN(C[C@H](O)c1ccc(-n3cnnn3)nc1)CC2 (single isomer, unassigned) [Example 115]  60 nM
20. CC1=C(N2C(=O)C3(CCN(C[C@H](O)c4ccc(-n5cnnn5)nn4)CC3)CC2C)COC1=O (single isomer, unassigned) [Example 123]  60 nM
21. CC1=C(N2C(=O)C3(CCN(C[C@H](O)c4ccc(-n5cnnn5)nn4)CC3)CC2C)COC1=O (single isomer, unassigned) [Example 125]  60 nM
22. CC1=C(N2C(=O)C3(CC2C)CC2CCC(C3)N2C[C@@H](O)c2ccc(-n3cnnn3)nc2)COC1=O (single isomer, unassigned) [Example 134]  60 nM
23. COC1CN(C[C@@H](O)c2ccc(-n3cnnn3)nc2)CCC12CCN(C1=C(C)C(=O)OC1)C2=O (single isomer, unassigned) [Example 171]  60 nM
24. CC1=C(N2CCC3(CCN(C[C@H](O)c4ccc(-n5cnnn5)nc4C)CC3F)C2=O)COC1=O (single isomer, unassigned) [Example 117]  50 nM
25. CC1=C(N2C(=O)C3(CC2C)CC2CCC(C3)N2C[C@H](O)c2ccc(-n3cnnn3)nc2)COC1=O (single isomer, unassigned) [Example 135]  50 nM
26. COC1CN(C2=C(C)C(=O)OC2)C(=O)C12CC1CCC(C2)N1C[C@H](O)c1ccc(-n2cnnn2)nc1 (single isomer, unassigned) [Example 108]  40 nM
27. CC1=C(N2C(=O)C3(CCN(C[C@@H](O)c4ccc(-n5cnnn5)nn4)CC3)CC2C)COC1=O (single isomer, unassigned) [Example 124]  40 nM
28. CC1=C(N2C(=O)C3(CCN(C[C@H](O)c4ccc(-n5cnnn5)cc4C)CC3)CC2C)COC1=O (single isomer, unassigned) [Example 139]  40 nM
29. COC1CN(C2=C(C)C(=O)OC2)C(=O)C12CC1CCC(C2)N1C[C@H](O)c1ccc(-n2cnnn2)nc1 (single isomer, unassigned) [Example 159]  40 nM
30. COC1CN(C2=C(C)C(=O)OC2)C(=O)C12CC1CCC(C2)N1C[C@H](O)c1cnc(-n2cnnn2)cn1 (single isomer, unassigned) [Example 162]  40 nM
31. COC1CN(C[C@H](O)c2ccc(-n3cnnn3)nc2)CCC12CCN(C1=C(C)C(=O)OC1)C2=O (single isomer, unassigned) [Example 170]  40 nM
32. CC1=C(N2C(=O)C3(CCN(C[C@H](O)c4ccc(-n5cnnn5)cc4F)CC3)CC2C)COC1=O (single isomer, unassigned) [Example 141]  30 nM
33. CC1=C(N2C(=O)C3(CCN(C[C@@H](O)c4ccc(-n5cnnn5)cc4F)CC3)CC2C)COC1=O (single isomer, unassigned) [Example 142]  30 nM
34. COC1CN(C2=C(C)C(=O)OC2)C(=O)C12CC1CCC(C2)N1C[C@H](O)c1ccc(-n2cnnn2)nc1 (single isomer, unassigned) [Example 161]  30 nM
35. CC1=C(N2C(=O)C3(CC2C)CC2CCC(C3)N2C[C@H](O)c2ccc(-n3cnnn3)nc2)COC1=O (single isomer, unassigned) [Example 133]  10 nM
36. CC1=C(N2C(=O)C3(CCN(C[C@@H](O)c4ccc(-n5cnnn5)cc4C)CC3)CC2C)COC1=O (single isomer, unassigned) [Example 140]  10 nM
